The source made the active and inactive calls. Cut-off read from the data, not from the text of the source: active = AC50 below about 11 µM.
What follows are compounds tested on B cell line, TNFa signaling counterscreen reporter (assay: TNFa signaling inhibitors in B cell line, dose response, counter-screen (AID 1259334);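 note: cells stimulated with TNFa after compound preincubation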).
`CC(=O)NC12CC3CC(C1)CC(C(=O)OCC(=O)c1ccc4c(c1)OCCO4)(C3)C2` showed an AC50 of 6.44 µM. In the case of `Cc1noc(C)c1S(=O)(=O)N(C)C[C@H]1OCc2ccccc2-c2c(n(C)c3ccccc23)C(=O)N([C@@H](C)CO)C[C@H]1C`, the AC50 is reported as > 20 µM (inactive). With `CCN1C(=O)C(CC(=O)Nc2ccc(F)cc2)N(Cc2ccco2)C1=S` (stereo unspecified) the AC50 was > 20 µM (inactive). `Oc1ccc2c(c1)OCC1(O)Cc3cc(O)c(O)cc3C21` (stereo unspecified) was tested, and the AC50 was 2.18 µM. `CC1OC(OC2C(O)CC(OC3C(O)CC(OC4CCC5(C)C(CCC6C5CCC5(C)C(C7=CC(=O)OC7)C(O)CC65O)C4)OC3C)OC2C)CC(O)C1O` (stereo unspecified) showed an AC50 of 0.745 µM. With `C[C@@H]1CCCCO[C@H](CN(C)CC2CCCCC2)[C@H](C)CN([C@@H](C)CO)C(=O)c2cc(NC(=O)Nc3ccc(C(F)(F)F)cc3)ccc2O1` the AC50 was > 20 µM (inactive). Work on `CC(C)CCCCCCCCCCCCC(=O)NCC(=O)NC1C(O)C(O)C(Nc2ncnc3nc[nH]c23)OC1C(O)CO` (stereo unspecified) yielded an AC50 of 0.00421 µM. In the case of `COC(=O)C1=C(C)NC(C)=C(C(=O)OCCCN2CCC(c3ccccc3)(c3ccccc3)CC2)[C@H]1c1cccc([N+](=O)[O-])c1`, the AC50 is reported as 4.12 µM. In the case of `NC(=O)c1c(Br)n(C2OC(CO)C(O)C2O)c2ncnc(N)c12` (stereo unspecified), the AC50 is reported as 1.5 µM. `O=C1c2ccccc2C(=O)C1c1ccc2ccccc2n1` was tested, and the AC50 was 10.6 µM. `C[C@@H]1CN([C@H](C)CO)C(=O)c2c(c3ccccc3n2C)-c2ccccc2CO[C@H]1CN(C)Cc1cccc(C(F)(F)F)c1` was tested, and the AC50 was > 20 µM (inactive). With `Cc1csc(NC(=O)c2ccc(N3CCCC3=O)cc2)n1` the AC50 was 3.75 µM. With `NC(c1ccccc1)c1csc(NC(=O)Nc2cccc(C(F)(F)F)c2)n1` (stereo unspecified) the AC50 was 3.07 µM. With `O=C(Nc1nc2ccccc2s1)c1ccc(OCC2CCCO2)cc1` (stereo unspecified) the AC50 was 10.2 µM. Compound `COc1ccc(CC2C(=O)NC(C)C(=O)N(C)C3C(=O)N(C)C(Cc4ccc(O)c(c4)Oc4ccc(cc4)C3O)C(=O)NC(C)C(=O)NC(C)C(=O)N2C)cc1` (stereo unspecified) has an AC50 of 0.0133 µM. `C[C@@H]1CCCCO[C@@H](CN(C)Cc2ccc(Cl)c(Cl)c2)[C@H](C)CN([C@H](C)CO)C(=O)c2cc(NS(=O)(=O)c3cccs3)ccc2O1` gave an AC50 of 6.39 µM. `Fc1ccccc1CNCCC(Cc1ccccc1)c1ccc2c(c1)OCO2` (stereo unspecified) was tested, and the AC50 was 3.4 µM. Compound `C[C@@H]1CN([C@@H](C)CO)C(=O)c2c(c3ccccc3n2C)-c2ccccc2CO[C@H]1CN(C)C(=O)Nc1cccc(C(F)(F)F)c1` has an AC50 of 10.9 µM. `COc1cccc(S(=O)(=O)N(C)C[C@H]2OCc3ccccc3-c3c(n(C)c4ccccc34)C(=O)N([C@@H](C)CO)C[C@@H]2C)c1` was tested, and the AC50 was > 20 µM (inactive). With `c1ccc2c(c1)OCC(C1=NCCN1)O2` (stereo unspecified) the AC50 was > 20 µM (inactive). Compound `Cc1ccc(C(OCC(O)CNCc2ccc(F)cc2)c2ccccc2)cc1` (stereo unspecified) has an AC50 of 7.2 µM. For `O=C(CNC(=O)c1ccco1)Nc1ccc2c(c1)OCCO2`, the AC50 was > 20 µM (inactive). For `CC[N+]1(C)CCC(O)(c2ccc(OC)cc2)C(C(=O)c2ccc(OC)cc2)C1` (stereo unspecified), the AC50 was 3.52 µM. Work on `N#Cc1cccc(-c2ccc([C@@H]3[C@@H]4CN(S(=O)(=O)c5ccc(-c6ccccc6)cc5)C[C@H]3N4)cc2)c1` yielded an AC50 of 11.4 µM. With `CCCCn1c(NC(=O)c2ccc(Br)o2)c(S(=O)(=O)c2ccccc2)c2nc3ccccc3nc21` the AC50 was 9.82 µM. Work on `CC1=C(O)C(=O)C=C2C1=CC=C1C2(C)CCC2(C)C3CC(C)(C(=O)O)CCC3(C)CCC12C` (stereo unspecified) yielded an AC50 of 0.414 µM. Work on `CC(C)(C)NCC(=Cc1ccccc1)C(=O)c1ccccc1` yielded an AC50 of 2.84 µM. With `O=c1cc(-c2ccc(O)cc2)oc2ccc3ccccc3c12` the AC50 was 1.67 µM. With `O=C1CCCCC1Sc1nnc(-c2ccc3c(c2)OCO3)o1` (stereo unspecified) the AC50 was 0.871 µM. With `COc1ccc(C(=O)CCN2CCc3cc(OC)c(OC)cc3C2)cc1` the AC50 was 5.97 µM. `CC(C)[C@H](N)C(=O)N[C@H]1CCC2C3CC=C4C[C@@H](O)CC[C@]4(C)C3CC[C@@]21C` (stereo partly specified) gave an AC50 of 1.96 µM. In the case of `C=CC[n+]1c(/C=C2\C=Cc3cc(C)ccc3N2CC)ccc2ccccc21`, the AC50 is reported as 0.951 µM. For `CC[C@@]1(O)C(=O)OCc2c1cc1n(c2=O)Cc2cc3cc(O)ccc3nc2-1`, the AC50 was 1.13 µM. `CCOc1ccc(OCc2cccc(C(=O)N3CCOCC3)c2)cc1` gave an AC50 of 2.84 µM. `O=C(C1CC1)N1C[C@@H]2N[C@H](C1)C2c1ccc(-c2cccc(F)c2)cc1` (stereo partly specified) gave an AC50 of 5.96 µM. For `N#C[C@H]1[C@H](c2ccc(C#Cc3ccccc3F)cc2)[C@@H](CO)N1C(=O)c1cccnc1`, the AC50 was 9.37 µM. `COc1ccc(S(=O)(=O)Nc2ccc3c(c2)C(=O)N([C@H](C)CO)C[C@H](C)[C@@H](CN(C)Cc2ccc(C(F)(F)F)cc2)OCCCC[C@@H](C)O3)cc1` was tested, and the AC50 was 8.37 µM. In the case of `COc1ccc(S(=O)(=O)Nc2ccc3c(c2)C(=O)N([C@H](C)CO)C[C@@H](C)[C@H](CN(C)Cc2ccc(C(F)(F)F)cc2)OCCCC[C@@H](C)O3)cc1`, the AC50 is reported as 8.15 µM. With `CCS(=O)(=O)N1Cc2ccccc2CC1C(=O)Nc1nc2ccccc2s1` (stereo unspecified) the AC50 was 6.66 µM. `C[C@H]1O[C@@H](O[C@H]2[C@@H](O)C[C@H](O[C@H]3[C@@H](O)C[C@H](O[C@H]4CC[C@]5(C)C6C[C@@H](O)[C@]7(C)[C@@H](C8=CC(=O)OC8)CC[C@]7(O)C6CC[C@@H]5C4)O[C@@H]3C)O[C@@H]2C)C[C@H](O)[C@@H]1O` (stereo partly specified) gave an AC50 of 0.697 µM. `C[C@H]1CN([C@@H](C)CO)C(=O)c2ccccc2-c2ccccc2CO[C@@H]1CN(C)Cc1ccccc1C(F)(F)F` gave an AC50 of 7.26 µM.
